# Target: T1, SOD1^WT (Homo sapiens, UniProt P00441)
# T1 construct: The full-length constructs of SOD1-wild type (aa: 1–145); His-tag (cleaved yes); made in house; host or cells: E. coli BL21 DE3
# Assay: Analytical size-exclusion chromatography (SEC) aggregation assay, SOD1^WT
# Type: biochemical
# Conditions: PB 30X, reducing conditions
# Description: Fig 6 Aggregation studies of metallated and reduced SOD1^WT and SOD1^A4V on treatment with PB. ThT fluorescence was monitored during the co-incubation of metallated SOD1^WT (50 μM) (a) or SOD1^A4V (50 μM) (b) with PB at 1:30 molar ratio at 37 °C with continuous shaking, under reduced conditions. The values were normalized to the maximal ThT intensity elicited by SOD1^WT or SOD1^A4V and fitted to a Boltzmann sigmoidal equation. The control and PB-treated species were compared to analyse the effects of PB on the aggregation of SOD1^WT and SOD1^A4V. Error bars indicate the standard deviation. Analytical SEC of metallated SOD1^WT (50 μM) (c) and SOD1^A4V (50 μM) (d) with PB were analyzed under reducing conditions before and after 24 hrs and 48 hrs incubation at 37 °C. The first peak eluting at the volume was denoted as oligomerized SOD1^WT/SOD1^A4V (L). The second, third, and fourth peaks were calculated as trimer (T), dimer (D), and monomer (M) species of SOD1^WT/SOD1^A4V running at 14.5 ml, 15.7 ml, and 16.5 ml, respectively. […] The monomer (M), dimer (D), trimer (T), and large aggregate (L) species are shown as green, purple, red, and black dotted lines, respectively. All the experiments were performed for n = 3 biological replicates. […]
# Fig 7 Aggregation studies of de-metallated and reduced SOD1^WT and SOD1^A4V on treatment with PB. ThT fluorescence was monitored during the co-incubation of de-metallated SOD1^WT (50 μM) (a) or SOD1^A4V (50 μM) (b) with PB at 1:30 molar ratio at 37 °C with continuous shaking, under reduced conditions. […] Analytical SEC of de-metallated SOD1^WT (50 μM) (a) and SOD1^A4V (50 μM) (b) with PB were analysed under reducing conditions before and after 24 hrs and 48 hrs incubation at 37 °C. […] The second, third, and fourth peaks were calculated as trimer (T), dimer (D), and monomer (M) species of SOD1^WT/SOD1^A4V running at 14.5 ml, 15.7 ml, and 16.5 ml, respectively. […]
# [1] = Metallated SOD1^WT 50 μM, 24 and 48 hrs at 37 °C
# T1 sequence (P00441 whole entry): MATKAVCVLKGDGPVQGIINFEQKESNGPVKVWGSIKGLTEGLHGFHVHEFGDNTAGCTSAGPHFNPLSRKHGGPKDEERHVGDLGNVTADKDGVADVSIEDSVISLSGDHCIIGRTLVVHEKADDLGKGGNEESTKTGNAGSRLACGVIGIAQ
smiles,measurement,setting,value
"CCCC[C@H](C)/C=C(C)/C=C/C(=O)O [PB, (S, 2E, 4E)-4,6-dimethyldeca-2,4-dienoic acid]",formation of trimer species (SEC),"De-metallated (EDTA) SOD1^WT 50 μM, 48hrs",insignificantly reduced compared to the control
same,"formation of higher aggregates (SEC, eluting at 9.2 ml)",[1],may induce the formation of higher aggregates in a time-dependent manner
same,toxic trimer population (SEC),[1],time-dependent alleviation of toxic trimer population
